Measured values published in patent publication US6727270B2, “Pyrrolylalkylidene-hydrazinecarboximidamide derivatives as 5-hydroxytryptamine-6 ligands” (Wyeth, priority 2002, dated 2004).
Where a name gives a salt, the structure may show the parent alone.

System: not given
Test: not given
Details: not given

melting point	Molecule
285 °C (dec.)	C/C(=N\NC(=N)N)c1ccn(S(=O)(=O)c2sc3ccc(Cl)cc3c2C)c1 (as salt: hydrochloride) [Example 17]
277 to 279 °C	C/C(=N\NC(=N)N)c1ccn(S(=O)(=O)c2ccc(C)cc2)c1 (as salt: hydrochloride) [Example 15, 2-{(E)-1-[1-(4-methylphenylsulfonyl)-1H-pyrrol-3-yl]ethylidene}hydrazine-carboximidamide]
220 to 221 °C	C/C(=N\NC(=N)N)c1ccn(S(=O)(=O)c2ccccc2)c1 (as salt: hydrochloride) [Example 14, 2-{(E)-1-[1-(phenylsulfonyl)-1H-pyrrol-3-yl]ethylidene}hydrazinecarboximidamide]
198 to 200 °C	C/C(=N\NC(=N)N)c1ccn(S(=O)(=O)c2ccc(N)cc2)c1 (as salt: hydrochloride) [Example 18, 2-((E)-1-{1-[(4-aminophenyl)sulfonyl]-1H-pyrrol-3-yl}ethylidene)-1-hydrazine-carboximidamide]
225 °C (dec.)	C/C(=N\NC(=N)N)c1ccn(S(=O)(=O)c2sc(N)nc2C)c1 (as salt: hydrochloride) [Example 19, 2-((E)-1-{1-[(2-amino-4-methyl-1,3-thiazol-5-yl)sulfonyl]-1H-pyrrol-3-yl}ethylidene)-1-hydrazinecarboximidamide]

Molecular target: T1, human cloned 5-HT6 receptors (Homo sapiens, UniProt P50406)
T1 construct: expressed in transfected cells; host or cells: Hela cells
Test: 5-HT6 binding affinity, [3H]-LSD displacement on membranes of Hela cells expressing human cloned 5-HT6 receptors
Details: [3H]-LSD 3.0 nM, Hela cell membranes, 120 min at room temperature
Description: Comparative Evaluation of 5-HT6 Binding Affinity of Test Compounds
The affinity of test compounds for the serotonin 5-HT6 receptor is evaluated in the following manner. Cultured Hela cells expressing human cloned 5-HT6 receptors are harvested and centrifuged at low speed (1,000×g) for 10.0 min to remove the culture media. The harvested cells are suspended in half volume of fresh physiological phosphate buffered saline solution and recentrifuged at the same speed. This operation is repeated. The collected cells are then homogenized in ten volumes of 50 mM Tris.HCl (pH 7.4) and 0.5 mM EDTA. The homogenate is centrifuged at 40,000×g for 30.0 min and the precipitate is collected. The obtained pellet is resuspended in 10 volumes of Tris.HCl buffer and recentrifuged at the same speed. The final pellet is suspended in a small volume of Tris.HCl buffer and the tissue protein content is determined in aliquots of 10-25 μl volumes. Bovine Serum Albumin is used as the standard in the protein determination according to the method described in Lowry et al., J. Biol. Chem., 193:265 (1951). The volume of the suspended cell membranes is adjusted to give a tissue protein concentration of 1.0 mg/ml of suspension. The prepared membrane suspension (10 times concentrated) is aliquoted in 1.0 ml volumes and stored at −70° C. until used in subsequent binding experiments.
The reaction is allowed to proceed in the dark for 120 min at room temperature, at which time, the bound ligand-receptor complex is filtered off on a 96 well unifilter with a Packard Filtermate® 196 Harvester. The bound complex caught on the filter disk is allowed to air dry and the radioactivity is measured in a Packard TopCount® equipped with six photomultiplier detectors, after the addition of 40.0 μl Microscint®-20 scintillant to each shallow well. The unifilter plate is heat-sealed and counted in a PackardTopCount® with a tritium efficiency of 31.0%.
Binding in the presence of varying concentrations of test compound is expressed as a percentage of specific binding in the absence of test compound. The results are plotted as log % bound versus log concentration of test compound. […] A linear regression line of data points is plotted, from which the IC50 value is determined and the Ki value is determined based upon the following equation: […]
where L is the concentration of the radioactive ligand used and KD is the dissociation constant of the ligand for the receptor, both expressed in nM.

T1 sequence (P50406 whole entry): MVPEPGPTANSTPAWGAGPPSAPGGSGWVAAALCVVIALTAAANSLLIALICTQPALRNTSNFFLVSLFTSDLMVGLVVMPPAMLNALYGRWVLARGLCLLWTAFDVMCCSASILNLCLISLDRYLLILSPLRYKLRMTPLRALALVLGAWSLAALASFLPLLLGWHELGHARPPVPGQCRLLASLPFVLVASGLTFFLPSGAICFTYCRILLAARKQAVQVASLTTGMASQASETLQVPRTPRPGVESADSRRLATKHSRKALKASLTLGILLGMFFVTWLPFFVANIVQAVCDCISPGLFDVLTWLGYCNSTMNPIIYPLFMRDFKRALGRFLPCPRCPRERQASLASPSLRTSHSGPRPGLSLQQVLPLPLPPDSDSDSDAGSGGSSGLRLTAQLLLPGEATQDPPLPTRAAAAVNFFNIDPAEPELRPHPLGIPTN

Ki	Molecule
3.75 nM	C/C(=N\NC(=N)N)c1ccn(S(=O)(=O)c2sc(N)nc2C)c1 [Example 19, 2-((E)-1-{1-[(2-amino-4-methyl-1,3-thiazol-5-yl)sulfonyl]-1H-pyrrol-3-yl}ethylidene)-1-hydrazinecarboximidamide]
6 nM	C/C(=N\NC(=N)N)c1c(C)cn(S(=O)(=O)c2ccccc2)c1C [Example 13, 2-{(E)-1-[2,4-Dimethyl-1-(phenylsulfonyl)-1H-pyrrol-3-yl]ethylidine} hydrazinecarboximidamide Hydrochloride]
32 nM	C/C(=N\NC(=N)N)c1ccn(S(=O)(=O)c2sc3ccc(Cl)cc3c2C)c1 [Example 17]
0.6 nM	C/C(=N\NC(=N)N)c1ccn(S(=O)(=O)c2ccc(N)cc2)c1 [Example 18, 2-((E)-1-{1-[(4-aminophenyl)sulfonyl]-1H-pyrrol-3-yl}ethylidene)-1-hydrazine-carboximidamide]
37 nM	N=C(N)N/N=C1\CCCc2c1ccn2S(=O)(=O)c1ccccc1 [Example 7, 2-[1-(Phenylsulfonyl)-1,5,6,7-tetrahydro-4H-indol-4-ylidine]-1-hydrazinecarboximidamide Hydrochloride]
5.5 nM	C/C(=N\NC(=N)N)c1ccn(S(=O)(=O)c2ccc(C)cc2)c1 [Example 15, 2-{(E)-1-[1-(4-methylphenylsulfonyl)-1H-pyrrol-3-yl]ethylidene}hydrazine-carboximidamide]
1.5 nM	C/C(=N\NC(=N)N)c1ccn(S(=O)(=O)c2ccccc2)c1 [Example 14, 2-{(E)-1-[1-(phenylsulfonyl)-1H-pyrrol-3-yl]ethylidene}hydrazinecarboximidamide]

Molecule	Ki
2-{(E)-1-[1-(naphthylsulfonyl)-1H-pyrrol-3-yl]ethylidene}-1-hydrazine-carboximidamide [Example 16]	2 nM
